{
  "source": "paper PMC4492579",
  "about": "“Potent and Selective Triazole-Based Inhibitors of the Hypoxia-Inducible Factor Prolyl-Hydroxylases with Activity in the Murine Brain” (PLoS ONE, 2015)",
  "key": {"Hep3B": {"tested_on": "Hep3B", "experiment": "Quantitative HIF1α MSD immunoassay, Hep3B", "format": "cell-based", "settings": "Homo sapiens, read-out: HIF1α EC50", "protocol": "(§1) Cells were seeded into 96-well cell culture plates (150 μl culture volume) at approximately 60–70% confluency at least 12 h prior to the compound treatment. Half of the culture medium (75 μl/well) were removed and 75 μl/well of medium containing the desired concentrations of compounds were added into cells for 5 h. The cell medium was then removed and the cells were washed once with phosphate buffered saline (PBS), followed by the addition of lysis buffer (20 mM Tris pH 7.4, 450 mM NaCl, 1 mM EDTA, 1 mM EGTA, 0.5% Triton X-100, 1x complete protease inhibitor cocktail and 100 μM DFO). Plates were then left at 4°C with shaking. […] Plates were washed thrice with Tris Wash Buffer, added with 150 μl/well 2X Read Buffer (R92TC, Meso Scale Discovery) before being read with an MSD Sector S600 plate reader (Meso Scale Discovery). Signals generated were normalized to “lysis buffer-only” controls.\n(§2) To quantify the cellular efficiency of PHD inhibition, we developed an electrochemiluminescence-based assay for the quantification of HIF1α levels using the Meso Scale Discovery (MSD, http://www.mesoscale.com) technology (HIF1α MSD assay), which is based on the capture and detection of HIF1α protein using two specific HIF1α antibodies. […]"}, "PHD2": {"biological_target": "PHD2 (Homo sapiens, UniProt Q9GZT9)", "sequence (Q9GZT9 whole entry)": "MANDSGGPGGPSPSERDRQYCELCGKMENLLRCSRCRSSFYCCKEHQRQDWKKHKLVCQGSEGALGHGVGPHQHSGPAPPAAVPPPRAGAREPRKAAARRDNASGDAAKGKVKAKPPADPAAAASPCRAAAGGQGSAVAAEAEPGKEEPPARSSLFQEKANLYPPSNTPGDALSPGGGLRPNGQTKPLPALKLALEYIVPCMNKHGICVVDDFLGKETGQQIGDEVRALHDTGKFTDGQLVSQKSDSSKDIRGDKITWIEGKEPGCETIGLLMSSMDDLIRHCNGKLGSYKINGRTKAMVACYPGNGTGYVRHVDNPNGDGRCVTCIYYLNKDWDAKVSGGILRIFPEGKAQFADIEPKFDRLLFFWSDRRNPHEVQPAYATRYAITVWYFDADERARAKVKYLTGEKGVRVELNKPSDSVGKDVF", "experiment": "Competition-based NMR reporter ligand displacement assay ([13C]-2OG / [13C]-CODD)", "format": "binding", "settings": "50 μM apo-PHD2, 400 μM Zn(II), 400 μM competitor", "protocol": "For 2OG displacement assays, selective ^1H-^13C 1D-HSQC experiments were conducted at 700 MHz using a Bruker Avance III spectrometer equipped with an inverse TCI cryoprobe optimized for ^1H observation. The CLIP-HSQC sequence was used (without ^13C decoupling). Typical experimental parameters were as follows: acquisition time 0.58 s, relaxation delay 2 s, number of transients 256−1600. The 1JCH was set to 160 Hz. For the selective version of the experiment, a 6.8 ms Q3 180 degree pulse was used, and selective irradiation was applied at the appropriate [^13C] chemical shift. Three millimeter MATCH tubes with a 160 μL final sample volume were used. Solutions were buffered using Tris-D11 50 mM (pH 7.5) dissolved in 90% H2O and 10% D2O. Assays were conducted at 298 K in solutions typically containing 50 μM apo-PHD2, 400 μM Zn(II), 50 μM 1,2,3,4-[^13C]-2OG or [^13C]-labeled CODD (uniformly [^13C]-labeled at proline-564) and 400 μM competitor (except unlabeled CODD competitor used at 800 μM). Selective irradiation was applied at 30.5 ppm for [^13C]-2OG and 24.25 ppm for [^13C]-labeled CODD. Percentage displacement was calculated according to equation: (I−I0)/(Iblank−I0) where I 0 is the intensity of the reporter in the presence of protein but without inhibitor, I is the intensity of the reporter in the presence of protein and inhibitor, and I blank is the intensity of the reporter without protein or inhibitor.\nThe results reveal that the previously described inhibitor IOX2 displaces 2OG from PHD2 (S3A Fig), consistent with its predicted binding mode. […] Previous crystallographic studies have shown that the HIF substrate can still bind even when the 2OG active site is occupied by some, but not all, inhibitors."}, "U2OS": {"tested_on": "U2OS", "experiment": "Quantitative HIF1α MSD immunoassay, U2OS", "format": "cell-based", "settings": "Homo sapiens, read-out: HIF1α EC50", "protocol": "as §1, §2"}, "JARID1C (KDM5C)": {"biological_target": "JARID1C (KDM5C) (Homo sapiens, UniProt P41229)", "sequence (P41229 whole entry)": "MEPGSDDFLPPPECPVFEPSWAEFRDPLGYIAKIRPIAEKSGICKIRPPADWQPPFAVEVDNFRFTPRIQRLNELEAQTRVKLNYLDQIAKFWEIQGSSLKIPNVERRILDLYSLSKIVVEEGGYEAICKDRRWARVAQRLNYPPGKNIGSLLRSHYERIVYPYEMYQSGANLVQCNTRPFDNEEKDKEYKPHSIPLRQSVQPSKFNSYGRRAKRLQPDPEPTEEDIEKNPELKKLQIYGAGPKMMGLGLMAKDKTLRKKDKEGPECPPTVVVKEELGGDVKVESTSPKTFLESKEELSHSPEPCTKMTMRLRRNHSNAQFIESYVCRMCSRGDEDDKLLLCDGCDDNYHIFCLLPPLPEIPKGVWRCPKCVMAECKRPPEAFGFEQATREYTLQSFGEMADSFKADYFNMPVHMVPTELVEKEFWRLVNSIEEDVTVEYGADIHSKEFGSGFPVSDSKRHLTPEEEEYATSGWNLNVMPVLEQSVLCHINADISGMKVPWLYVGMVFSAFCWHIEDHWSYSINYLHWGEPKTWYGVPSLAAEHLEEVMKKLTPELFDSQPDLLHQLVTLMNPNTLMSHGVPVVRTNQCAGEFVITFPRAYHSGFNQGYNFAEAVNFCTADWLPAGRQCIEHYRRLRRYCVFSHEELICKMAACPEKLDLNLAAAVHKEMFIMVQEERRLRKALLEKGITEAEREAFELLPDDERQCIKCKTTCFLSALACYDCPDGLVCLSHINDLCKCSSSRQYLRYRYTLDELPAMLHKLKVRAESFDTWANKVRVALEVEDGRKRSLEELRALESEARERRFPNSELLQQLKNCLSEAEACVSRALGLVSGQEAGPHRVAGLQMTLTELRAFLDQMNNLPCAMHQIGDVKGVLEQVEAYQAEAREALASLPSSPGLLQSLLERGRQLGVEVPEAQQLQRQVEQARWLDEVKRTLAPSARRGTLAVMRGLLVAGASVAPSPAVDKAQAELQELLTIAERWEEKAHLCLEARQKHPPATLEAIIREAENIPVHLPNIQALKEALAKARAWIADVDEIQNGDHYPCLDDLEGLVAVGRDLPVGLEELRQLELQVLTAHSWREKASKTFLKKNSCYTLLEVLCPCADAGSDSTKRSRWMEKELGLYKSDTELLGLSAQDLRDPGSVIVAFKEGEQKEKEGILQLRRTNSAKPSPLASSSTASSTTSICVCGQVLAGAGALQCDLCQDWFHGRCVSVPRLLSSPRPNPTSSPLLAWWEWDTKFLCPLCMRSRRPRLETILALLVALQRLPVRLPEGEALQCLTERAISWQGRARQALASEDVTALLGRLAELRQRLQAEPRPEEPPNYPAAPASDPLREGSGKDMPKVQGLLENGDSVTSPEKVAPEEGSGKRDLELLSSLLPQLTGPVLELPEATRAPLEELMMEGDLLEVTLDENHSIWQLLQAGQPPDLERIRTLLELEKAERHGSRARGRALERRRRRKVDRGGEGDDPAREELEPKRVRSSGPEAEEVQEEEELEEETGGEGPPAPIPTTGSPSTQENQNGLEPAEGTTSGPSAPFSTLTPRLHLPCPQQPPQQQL", "experiment": "KDM AlphaScreen assay, JARID1C", "method": "Inhibition assays for PHD2 (AlphaScreen) [9], the KDMs (AlphaScreen) [17], BBOX [18] and FTO [19] were carried out as previously described. […] IC50 values were calculated using nonlinear regression with normalized dose-response fit using GraphPad Prism 5."}, "JMJD2A (KDM4A)": {"biological_target": "T1, JMJD2A (KDM4A) (Homo sapiens, UniProt O75164)", "T1 sequence (O75164 1-1064)": "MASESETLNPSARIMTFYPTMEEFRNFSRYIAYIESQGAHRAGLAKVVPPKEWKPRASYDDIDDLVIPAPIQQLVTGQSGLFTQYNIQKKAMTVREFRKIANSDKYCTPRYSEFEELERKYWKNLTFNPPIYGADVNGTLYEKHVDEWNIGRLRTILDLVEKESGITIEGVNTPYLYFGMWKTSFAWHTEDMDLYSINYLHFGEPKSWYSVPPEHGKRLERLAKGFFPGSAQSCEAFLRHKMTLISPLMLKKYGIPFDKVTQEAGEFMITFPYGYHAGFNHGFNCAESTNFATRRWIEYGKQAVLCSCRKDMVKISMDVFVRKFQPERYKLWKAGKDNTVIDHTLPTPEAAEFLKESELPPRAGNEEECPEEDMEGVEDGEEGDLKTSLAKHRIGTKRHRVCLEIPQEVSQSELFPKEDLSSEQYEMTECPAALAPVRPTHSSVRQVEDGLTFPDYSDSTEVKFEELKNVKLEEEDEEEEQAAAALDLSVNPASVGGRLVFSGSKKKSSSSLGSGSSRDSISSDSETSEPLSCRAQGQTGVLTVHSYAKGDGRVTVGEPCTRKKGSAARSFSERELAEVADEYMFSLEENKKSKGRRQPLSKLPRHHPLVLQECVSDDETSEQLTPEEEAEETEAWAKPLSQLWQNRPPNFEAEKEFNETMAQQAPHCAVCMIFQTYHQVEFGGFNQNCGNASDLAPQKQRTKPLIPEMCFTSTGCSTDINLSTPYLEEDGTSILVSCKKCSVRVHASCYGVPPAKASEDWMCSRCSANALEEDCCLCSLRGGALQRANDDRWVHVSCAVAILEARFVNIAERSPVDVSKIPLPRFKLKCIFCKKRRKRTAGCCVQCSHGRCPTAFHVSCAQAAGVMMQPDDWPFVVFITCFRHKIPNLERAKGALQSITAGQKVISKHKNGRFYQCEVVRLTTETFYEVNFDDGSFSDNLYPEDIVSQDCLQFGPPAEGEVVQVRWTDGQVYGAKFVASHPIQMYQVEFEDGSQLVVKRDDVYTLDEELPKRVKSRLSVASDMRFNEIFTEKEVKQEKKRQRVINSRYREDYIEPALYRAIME", "experiment": "KDM AlphaScreen assay, JMJD2A", "method": "Inhibition assays for PHD2 (AlphaScreen) [9], the KDMs (AlphaScreen) [17], BBOX [18] and FTO [19] were carried out as previously described. N-Terminally biotinylated 19-residue human HIF1α CODD peptide ([sequence]) used in the PHD2 inhibition assays was from GL Biochem (Shanghai). IC50 values were calculated using nonlinear regression with normalized dose-response fit using GraphPad Prism 5."}},
  "note": "Where a name gives a salt, the structure may show the parent alone. Read-outs that look alike come from different tables or passages of the source.",
  "data": [
    {"smiles": "O=C(O)CNC(=O)c1c(O)c2ccccc2n(Cc2ccccc2)c1=O", "note": "[IOX2]", "values": [
      {"measurement": "EC50", "setting": "Hep3B; 5 h treatment, MSD assay", "value": 86, "unit": "µM"},
      {"measurement": "displacement of [13C]-2OG from PHD2", "setting": "PHD2", "value": "displaces 2OG"},
      {"measurement": "displacement of [13C]-CODD from PHD2", "setting": "PHD2", "value": "not displaced"},
      {"measurement": "EC50", "setting": "U2OS; 5 h treatment, MSD assay", "value": 49.5, "unit": "µM"}
    ]},
    {"smiles": "CC(C)(C)OC(=O)c1ccc(-n2[nH]cc(-n3ccnn3)c2=O)nc1", "note": "[IOX4, t-Butyl 6-(5-oxo-4-(1H-1,2,3-triazol-1-yl)-2,5-dihydro-1H-pyrazol-1-yl)nicotinate]", "values": [
      {"measurement": "IC50", "setting": "JARID1C (KDM5C)", "value": "> 100", "unit": "µM"},
      {"measurement": "EC50", "setting": "Hep3B; 5 h", "value": 11.1, "unit": "µM"},
      {"measurement": "displacement of [13C]-2OG from PHD2", "setting": "PHD2", "value": "displaces 2OG"},
      {"measurement": "displacement of [13C]-CODD from PHD2", "setting": "PHD2", "value": "remained bound"},
      {"measurement": "EC50", "setting": "U2OS; 5 h", "value": 5.6, "unit": "µM"},
      {"measurement": "IC50", "setting": "JMJD2A (KDM4A)", "value": "> 20", "unit": "µM"}
    ]},
    {"smiles": "O=C(O)c1ccc(-n2[nH]cc(-n3ccnn3)c2=O)nc1", "note": "[compound 1, 6-(5-oxo-4-(1H-1,2,3-triazol-1-yl)-2,5-dihydro-1H-pyrazol-1-yl)pyridine-3-carbocylic acid hydrochloride]", "values": [
      {"measurement": "IC50", "setting": "JARID1C (KDM5C)", "value": "> 100", "unit": "µM"},
      {"measurement": "IC50", "setting": "JMJD2A (KDM4A)", "value": "> 20", "unit": "µM"}
    ]}
  ]
}
